Test: quantity of water absorbed by the same mass (100 g) of excipients
Type: physicochemical
Description: Below are some examples supporting this statement, which test the quantity of water absorbed by the same mass (100 g) of excipients of different types: […]

## OC[C@H]1O[C@@H](O[C@H]2[C@H](O)[C@@H](O)C(O)O[C@@H]2CO)[C@H](O)[C@@H](O)[C@H]1O (stereo partly shown) [Lactose]
  AMOUNT OF WATER ABSORBED PER 100 g OF EXCIPIENT: 15 g

— patent publication US20030031723A1, “Formulation and method for preparation of rapid dispersion spheroids which can be heavily titrated” (priority 2001, published 2003)
